Measurements as given in patent US4910208A, “Method of inhibiting leukotriene biosynthesis by oral administration of p-aminophenols or derivatives thereof” (E. R. Squibb & Sons, Inc., priority 1988, dated 1990).
Where two headings read alike, the source gives them in different places.

What was measured:
[1] = test system: SRS-mediated bronchoconstriction; assay: Standard assay for inhibitors of SRS-mediated bronchoconstriction in sensitized guinea pigs; type: in vivo, guinea pig (male Hartly); settings: for ED50: Cavia porcellus, po, 1 h; for antiasthmatic activity when administered orally: oral
Experimental: Guinea pigs sensitized to ovalbumin and challenged intravenously with this antigen in the presence of the cyclooxygenase inhibitor, indomethacin (IM), an antihistamine, methapyriline, and a beta-antagonist, propranolol,undergo a delayed (3-13 minutes) bronchospasm, presumed due to the synthesis and release of SRS (leukotriene C, D, and E). A Buxco respiratory mechanics analyzer is used to evaluate the in vivo efficacy of inhibitors of the lipoxygenase pathway in this model of SRS-mediated bronchoconstriction. This system monitors pulmonary air flow, through use of a whole body plethysomgraph, and transpulmonary pressure, from tracheal and intrapleural catheters. Tidal volume is derived from the flow signal by integration, and airway resistance (R) and dynamic compliance (^C dyn) are continuously computed by the system from the primary flow, volume, and pressure parameters. In addition, the system continuously monitors blood pressure and heart rate.
Male Hartly guinea pigs (200 g) ar sensitized by injecting ovalbumin (OA) (10 mg/kg) (each injection also contains 16 mg Amphojel) ip o days 0 and 2. These animals are normally used on days 10-18 following initial sensitization.
On the test day animals are anesthetized by ip injection of urethane (1.2-1.5 g/kg. The jugular vein and carotid artery are catheterized using intramedic PR50 tubing. The trachea is catheterized using intramedic PE240 tubing. Spontaneous respiration is arrested by injecting succinyl choline (2.0 mg/kg, iv) into the jugular vein, and the animal is artificially respirated at 48 breaths/minute with a volume of 4.0 ml/breath. Intramedic PE200 tubing is inserted through the chest wall into the intrapleural space, and the tracheal (by sidearm attachment) and intrapleural cannulas are attached to a single pressure transducer in order to obtain the transpulmonary pressure. The standard protocol requires an initial injection of indomethacin (meglumine salt) (10 mg/kg, iv). Five minutes later antihistamine (methapyrilene, 2 mg/kg, iv) is given, followed one minute later by propranolol (0.1 mg/kg, iv) to induce leukotriene induced bronchoconstriction with no histamine-induced bronchoconstriction and no beta-agonistic bronchoconstriction. Respiratory parameters are then allowed to stabilize for 5-15 minutes. Drugs are tested for oral activity by giving the compound by gavage to 18 hour fasted animals one hour prior to anesthetization. At restabilization, base lines are recorded by the computer for all parameters. To induce bronchoconstriction, a challenge dose of OA (0.4 mg/kg, iv) is given.
Results are expressed as % of baseline values after antigen challenge for R and ^C dyn, and percent inhibition is calculated by comparing % changes in baseline values between control (vehicle) and drug treated test groups.
Statistical significance is determined using a two tailed, unpaired T-test. Drug effects with p<0.05 will be considered significant.
Test compounds were evaluated for their ability to inhibit SRS-mediated changes in dynamic compliance (^C dyn) and resistance (R) as compared to the medicated (indomethacin-methapyrilenepropranolol) control group.

[2] = test system: SRS-mediated bronchoconstriction; assay: as above; type: in vivo, guinea pig (male Hartly); settings: 10 mg/kg, iv less than one minute before OA challenge
[3] = 3.0 mg/kg P.O., one hour before i.v. antigen challenge
[4] = 6.0 mg/kg P.O., one hour before i.v. antigen challenge
[5] = 9.0 mg/kg P.O., one hour before i.v. antigen challenge
[6] = 12.5 mg/kg P.O., one hour before i.v. antigen challenge
[7] = 25.0 mg/kg P.O., one hour before i.v. antigen challenge
[8] = P.O., one hour before i.v. antigen challenge, read-out: ED50^Cdyn (dose producing 50% inhibition of SRS-mediated changes in dynamic compliance)
[9] = P.O., one hour before i.v. antigen challenge, read-out: ED50^R (dose producing 50% inhibition of SRS-mediated changes in resistance)
[10] = 50.0 mg/kg P.O., one hour before i.v. antigen challenge
[11] = 5.0 mg/kg P.O., one hour before i.v. antigen challenge

Row | Compound | Dynamic Compliance (Cdyn), % of baseline following antigen challenge (mean ± S.E.) [1, 6] | Dynamic Compliance (Cdyn), Inhibition (%) [1, 6] [%] | Resistance (R), % of baseline following antigen challenge (mean ± S.E.) [1, 6] | Resistance (R), Inhibition (%) [1, 6] [%] | Dynamic Compliance (Cdyn), % of baseline following antigen challenge (mean ± S.E.) [1, 7] | Dynamic Compliance (Cdyn), Inhibition (%) [1, 7] [%] | Resistance (R), % of baseline following antigen challenge (mean ± S.E.) [1, 7] | Resistance (R), Inhibition (%) [1, 7] [%] | ED50 [1, 8] [mg/kg] | ED50 [1, 9] [mg/kg] | antiasthmatic activity when administered orally [1] | Dynamic Compliance (Cdyn), % of baseline following antigen challenge (mean ± S.E.) [1, 10] | Dynamic Compliance (Cdyn), Inhibition (%) [1, 10] [%] | Resistance (R), % of baseline following antigen challenge (mean ± S.E.) [1, 10] | Resistance (R), Inhibition (%) [1, 10] [%] | further results
1 | COc1ccc2cc(N(C)c3ccc(O)cc3)ccc2c1 [Example 17] | 64 ± 7 % of Baseline | 56 | 136 ± 10 % of Baseline | 88 | 57 ± 10 % of Baseline | 47 | 149 ± 23 % of Baseline | 82 | 6 to 9 | 6 to 9 | exhibit antiasthmatic activity |  |  |  |  | Dynamic Compliance (Cdyn), % of baseline following antigen challenge (mean ± S.E.) [1, 3]: 19 ± 11 % of Baseline; Dynamic Compliance (Cdyn), Inhibition (%) [1, 3]: 0%; Resistance (R), % of baseline following antigen challenge (mean ± S.E.) [1, 3]: 467 ± 134 % of Baseline; Resistance (R), Inhibition (%) [1, 3]: 0%; Dynamic Compliance (Cdyn), % of baseline following antigen challenge (mean ± S.E.) [1, 4]: 31 ± 20 % of Baseline; Dynamic Compliance (Cdyn), Inhibition (%) [1, 4]: 15%; Resistance (R), % of baseline following antigen challenge (mean ± S.E.) [1, 4]: 374 ± 132 % of Baseline; Resistance (R), Inhibition (%) [1, 4]: 1%; Dynamic Compliance (Cdyn), % of baseline following antigen challenge (mean ± S.E.) [1, 5]: 64 ± 8 % of Baseline; Dynamic Compliance (Cdyn), Inhibition (%) [1, 5]: 56%; Resistance (R), % of baseline following antigen challenge (mean ± S.E.) [1, 5]: 141 ± 28 % of Baseline; Resistance (R), Inhibition (%) [1, 5]: 85%; inhibition of antigen-induced bronchoconstriction ([1]; PO one hour before antigen challenge): significantly inhibited
2 | COc1ccc(Nc2ccc(O)cc2)c(CO)c1 [SQ 30,624, 2-[(4-Hydroxyphenyl)amino]-5-methoxybenzenemethanol, reference compound] |  |  |  |  |  |  |  |  |  |  | did not have antiasthmatic activity | 4 ± 3 % of Baseline | 0 | 386 ± 64 % of Baseline | 15 | oral activity ([1]; dose of 50 mg/kg P.O.): orally inactive
3 | CCCc1c(OCC(O)COc2ccc3c(=O)cc(C(=O)O)oc3c2CCC)ccc(C(C)=O)c1O (stereo not shown) [FPL-55712] |  |  |  |  |  |  |  |  |  |  |  |  |  |  |  | inhibition of bronchoconstriction as measured by effects on R and Cdyn [2]: 100%
4 | COc1ccc2cc(Nc3ccc(O)cc3)ccc2c1 [Example 2, 4-[(6-Methoxy-2-naphthyl)amino]phenol] | 44 ± 5 % of Baseline | 33 | 231 ± 39 % of Baseline | 57 | 62 ± 7 % of Baseline | 52 | 194 ± 42 % of Baseline | 69 | 23.8 | 6 | exhibit antiasthmatic activity | 66 ± 4 % of Baseline | 57 | 149 ± 11 % of Baseline | 84 | Dynamic Compliance (Cdyn), % of baseline following antigen challenge (mean ± S.E.) [1, 11]: 23 ± 7 % of Baseline; Dynamic Compliance (Cdyn), Inhibition (%) [1, 11]: 3%; Resistance (R), % of baseline following antigen challenge (mean ± S.E.) [1, 11]: 335 ± 74 % of Baseline; Resistance (R), Inhibition (%) [1, 11]: 23%; oral activity ([1]; P.O., one hour before antigen challenge): orally active; ED50^Cdyn (dose producing 50% inhibition of SRS-mediated changes in dynamic compliance) ([1]; P.O., one hour before i.v. antigen challenge): 23.8(14.1-51.7) mg/kg
